Assay results as given in patent publication US6841565B1, “Treatment of patients with chronic lymphocytic leukemia” (The Ohio State University, priority 2002, dated 2005).
Read-outs that look alike come from different tables or passages of the source.

What was measured:
human tumor cell lines = settings: A. Saito, et al., 1999; cited from earlier work
caspases 8 and 9 = test: Caspase activation, caspases 8 and 9; format: cell-based, human; settings: B-CLL cells treated with MS-275, other studies
Procedure: To determine the role and identity of caspases involved in MS-275-induced apoptosis, B-CLL cells, isolated as described in Example 1, were treated with MS-275 and analyzed for caspase activation by colorimetric assay. […] Cleavage of the protein BID, a known substrate of caspase 8, was also shown.

[1] = system: cellular histone deacetylase activity; settings: A. Saito, et al., 1999; cited from earlier work
histone deacetylases = test: Histone acetylation in B-CLL cells by immunoblotting; format: cell-based, human
Procedure: FIG. 2. MS-275 induced acetylation of histone proteins. PBMCs from two different B-CLL patients (Patient No. 1 and 2) were collected and incubated with 0, 0.3, or 3.0 μM MS-275 for 24 hours. Nuclear extracts were prepared from the cells and were separated by SDS-polyacrylamide gel electrophoresis before immunoblotting with antibodies immunospecific for acetylated forms of H3 or H4 histones. Coomassie blue staining was used to control for protein amount loaded onto the SDS polyacrylamide gels.
Antibodies immunospecific for specific acetylated lysine residues at the N terminus of histone H4 (i.e., K5, K8, K12 and K16) were also used. For immunoblotting, whole cell lysates were prepared from the cells using standard procedures. Protein samples were separated along with molecular weight markers (BioRad) on 10 to 14% SDS-polyacrylamide gels. Proteins in the gels were transferred using a semidry apparatus (BioRad) onto nitrocellulose membranes (Schleicher and Schuell, Keene, N.H.). Gel loading equivalence was confirmed by Ponceau S stain (Sigma) of membranes and by probing with a monoclonal antibody for GAPDH. Blots were developed with chemiluminescent substrate (Pierce Super-Signal, Pierce Biotechnology, Rockford, Ill.) and autoradiography was performed with X-OMAT film (Kodak, Rochester, N.Y.). Protein bands were digitally quantified using a ChemiDoc instrument (BioRad).

in vitro = format: cell-based; settings: human
Text: Peripheral blood mononuclear cells (PBMCs) were obtained from the B-CLL patients and were also obtained from healthy volunteers as controls. Peripheral blood was collected from the patients or volunteers using standard techniques (see for example, S. Bennett and S. N. Breit, 1994, Variables in the isolation and culture of human monocytes that are of particular relevance to studies of HIV, J. Leukoc. Biol. 56:236-40). PMBCs were isolated from the blood using standard density gradient centrifugation using Ficoll-Paque Plus (Pharmacia Biotech, Picsataway N.J.). After isolation, the PBMCs were washed in phosphate-buffered saline (PBS).
(§1) In order to accurately represent the in vivo situation where drug is eliminated from the bloodstream, 1×10^6 PBMCs from B-CLL patients or healthy volunteers, isolated as described in Example 1, were incubated in various concentrations of MS-275 in RPMI 1640 with 10% heat-inactivated fetal bovine serum for 4, 24 or 96 hours at 37° C. in 96-well plates. […] Viability of the cells was then analyzed using the MTT assay. […] To use the MTT assay, MTT reagent was added and the cells were incubated for an additional 24 hours before washing and analysis of purple formazan formation by spectrophotometry in a Labsystems 96-well plate reader. Data were plotted and values were calculated using GraphPad software (San Diego, Calif.).

1D10 antigen = 1D10 antigen levels on B-CLL cells by immunofluorescence flow cytometry; format: cell-based, human; settings: 3.0 μM MS-275, 24 hours
Procedure: Washed B-CLL cells, isolated as described in Example 1, from four different patients with B-CLL, were incubated at a concentration of 10^7 cells per ml in the presence or absence of 3.0 μM MS-275 for 24 hours, before being immunofluorescently stained with either non-specific antibody (unable to specifically bind to the cells) or antibody immunospecific for 1D10 antigen. All cells were also stained with an antibody immunospecific for CD19 (recognizing B cells). The cells were analyzed by flow cytometry. The mean fluorescence intensity due to 1D10 antigen staining of CD19-positive cells was recorded.

B-CLL cells [2] = test: cells; format: cell-based; settings: Homo sapiens, read-out: LC50
Procedure: FIG. 1. LC50 determination of MS-275 in primary B-CLL cells. Peripheral blood mononuclear cells (PBMCs) from thirteen individual B-CLL patients were isolated and incubated with varying concentrations of MS-275 from 0.01 to 100 uM. A. Cells were incubated in drug for 4 hours and were then washed and re-incubated in fresh media for a total of 96 hours. B. Cells were incubated in drug for 96 hours continuously. Viability was determined by an MTT assay to detect metabolic activity. Each patient sample at each concentration was run in quadruplicate and was normalized to cells from the same patient incubated for the same time period in media alone. Error bars represent 95% confidence intervals. […]
as §1, with “Data were plotted and values were calculated using GraphPad software (San Diego, Calif.).” left out

B-CLL cells [3] = test: Annexin V/propidium iodide flow cytometric apoptosis assay; format: cell-based, human
Procedure: FIG. 3. […] B-CLL patient cells were incubated with 0, 0.3, or 3.0 μM MS-275 for 24 hours. Apoptosis was assessed by annexin V/propidium iodide flow cytometry. To determine whether MS-275-treated B-CLL cells were undergoing apoptosis, an annexin V/propidium iodide flow cytometric assay was used to analyze the B-CLL cells, isolated as described in Example 1, from four different patients. Staining of cells for annexin V is an early indicator of initiation of apoptosis. Staining of cells with propidium iodide is an indicator that cells are no longer viable and, therefore, that apoptosis has actually occurred (i.e., integrity of cell membrane has been breached). To perform the assay, cells were exposed to various concentrations of MS-275 for 4 hours. Then, the cells were washed, resuspended in complete medium and incubated for 24 or 48 hours in absence of MS-275. At these times, cells were washed with PBS and resuspended in binding buffer containing annexin V-FITC and propidium iodide (BD Pharmingen, San Diego, Calif.). After 15 minutes of incubation in the dark at room temperature, apoptosis was assessed by flow cytometry on a Coulter EPICS-XL flow cytometer. […] The results were similar in the other three patients.

caspase 3 = test: Caspase activation colorimetric assay, caspase 3; format: cell-based, human; settings: B-CLL cells, 0.3 or 3.0 μM MS-275, 24 hours
Procedure: FIG. 4. […] B-CLL patient cells were incubated with 0.3 or 3.0 μM MS-275 for 24 hours. At these time points, lysates were prepared from the cells and caspase 3 activity in the lysates was measured using a colorimetric assay. To determine the role and identity of caspases involved in MS-275-induced apoptosis, B-CLL cells, isolated as described in Example 1, were treated with MS-275 and analyzed for caspase activation by colorimetric assay. […] Cleavage of the protein BID, a known substrate of caspase 8, was also shown.

[4] = Patient No. 1, 0.3 μM MS-275, 24 hours
[5] = Patient No. 1, 3.0 μM MS-275, 24 hours
[6] = Patient No. 2, 0.3 μM MS-275, 24 hours
[7] = Patient No. 2, 3.0 μM MS-275, 24 hours
[8] = Patient No. 1, CD19-positive B-CLL cells
[9] = Patient No. 2, CD19-positive B-CLL cells
[10] = Patient No. 3, CD19-positive B-CLL cells
[11] = Patient No. 4, CD19-positive B-CLL cells

SMILES: Nc1ccccc1NC(=O)c1ccc(CNC(=O)OCc2cccnc2)cc1 [MS-275, N-(2-aminophenyl)-4-[N-(pyridin-3-yl-methoxycarbonyl)aminomethyl]benzamide]
- growth in a variety of human tumor cell lines (human tumor cell lines): block growth
- caspases 8 and 9 activation (caspases 8 and 9): activated to a lesser extent than caspase 3
- inhibition of cellular histone deacetylase activity [1]: inhibit cellular histone deacetylase activity
- Fold Increase in Histone Acetylation (Relative to Untreated), H3 Total (histone deacetylases; [4]): 1.3 fold
- Fold Increase in Histone Acetylation (Relative to Untreated), H4 K5 (histone deacetylases; [4]): 2.7 fold
- Fold Increase in Histone Acetylation (Relative to Untreated), H4 K8 (histone deacetylases; [4]): 1.6 fold
- Fold Increase in Histone Acetylation (Relative to Untreated), H4 K12 (histone deacetylases; [4]): 4.4 fold
- Fold Increase in Histone Acetylation (Relative to Untreated), H4 K16 (histone deacetylases; [4]): 3.7 fold
- Fold Increase in Histone Acetylation (Relative to Untreated), H4 Total (histone deacetylases; [4]): 2.4 fold
- Fold Increase in Histone Acetylation (Relative to Untreated), H3 Total (histone deacetylases; [5]): 2.3 fold
- Fold Increase in Histone Acetylation (Relative to Untreated), H4 K5 (histone deacetylases; [5]): 8.9 fold
- Fold Increase in Histone Acetylation (Relative to Untreated), H4 K8 (histone deacetylases; [5]): 1.9 fold
- Fold Increase in Histone Acetylation (Relative to Untreated), H4 K12 (histone deacetylases; [5]): 15.8 fold
- Fold Increase in Histone Acetylation (Relative to Untreated), H4 K16 (histone deacetylases; [5]): 9.1 fold
- Fold Increase in Histone Acetylation (Relative to Untreated), H4 Total (histone deacetylases; [5]): 3.9 fold
- Fold Increase in Histone Acetylation (Relative to Untreated), H3 Total (histone deacetylases; [6]): 1.5 fold
- Fold Increase in Histone Acetylation (Relative to Untreated), H4 K5 (histone deacetylases; [6]): 2.6 fold
- Fold Increase in Histone Acetylation (Relative to Untreated), H4 K8 (histone deacetylases; [6]): 4.4 fold
- Fold Increase in Histone Acetylation (Relative to Untreated), H4 K12 (histone deacetylases; [6]): 5.1 fold
- Fold Increase in Histone Acetylation (Relative to Untreated), H4 K16 (histone deacetylases; [6]): 3.1 fold
- Fold Increase in Histone Acetylation (Relative to Untreated), H4 Total (histone deacetylases; [6]): 3.8 fold
- Fold Increase in Histone Acetylation (Relative to Untreated), H3 Total (histone deacetylases; [7]): 3.1 fold
- Fold Increase in Histone Acetylation (Relative to Untreated), H4 K5 (histone deacetylases; [7]): 4.5 fold
- Fold Increase in Histone Acetylation (Relative to Untreated), H4 K8 (histone deacetylases; [7]): 4.8 fold
- Fold Increase in Histone Acetylation (Relative to Untreated), H4 K12 (histone deacetylases; [7]): 10.3 fold
- Fold Increase in Histone Acetylation (Relative to Untreated), H4 K16 (histone deacetylases; [7]): 4.7 fold
- Fold Increase in Histone Acetylation (Relative to Untreated), H4 Total (histone deacetylases; [7]): 5.2 fold
- CC50 at 4 h (in vitro): ≥ 21100 nM
- CC50 at 96 h (in vitro): ≥ 4750 nM
- mean 1D10 fluorescence normalized to the staining control (1D10 antigen; [8]): 88
- mean 1D10 fluorescence of the cells (1D10 antigen; [8]): 104.11
- mean 1D10 fluorescence normalized to the staining control (1D10 antigen; [9]): 393
- mean 1D10 fluorescence of the cells (1D10 antigen; [9]): 463.23
- mean 1D10 fluorescence normalized to the staining control (1D10 antigen; [10]): 3252
- mean 1D10 fluorescence of the cells (1D10 antigen; [10]): 6438.03
- mean 1D10 fluorescence normalized to the staining control (1D10 antigen; [11]): 4158
- mean 1D10 fluorescence of the cells (1D10 antigen; [11]): 5446.76
- CC50 (B-CLL cells [2]; 96 h): 509 nM
- CC50 (B-CLL cells [2]): 1210 nM
- apoptosis (annexin V/propidium iodide flow cytometry) (B-CLL cells [3]; 0.3 μM of MS-275, after 48 hours): apoptosis was detected after 48 hours
- apoptosis (annexin V/propidium iodide flow cytometry) (B-CLL cells [3]; 3.0 μM of MS-275, within 24 hours, one representative patient): apoptosis was detected within 24 hours
- effect of Bcl-2 expression on MS-275-induced apoptosis (B-CLL cells [3]; expression of the anti-apoptotic protein Bcl-2, other studies): inhibited by expression of the anti-apoptotic protein Bcl-2
- caspase 3 activation (caspase 3): induced activation of caspase 3
